Experimental data published in PMC11219860, “A chemogenetic approach for dopamine imaging with tunable sensitivity” (Nature Communications, 2024).
Read-outs that look alike come from different tables or passages of the source.

Legend:
[1] = biological target: T1, mouse DA transporter (DAT) (Mus musculus, UniProt Q61327); experiment: Fast-scan cyclic voltammetry of DA release in striatal slices; conditions: bath application: DETQ 200 nM; cocaine 5 µM
T1 construct: Lack of DETQ effect on the endogenous DA transporter; from tissue; host or cells: mouse striatal brain slices
T1 sequence (Q61327 whole entry): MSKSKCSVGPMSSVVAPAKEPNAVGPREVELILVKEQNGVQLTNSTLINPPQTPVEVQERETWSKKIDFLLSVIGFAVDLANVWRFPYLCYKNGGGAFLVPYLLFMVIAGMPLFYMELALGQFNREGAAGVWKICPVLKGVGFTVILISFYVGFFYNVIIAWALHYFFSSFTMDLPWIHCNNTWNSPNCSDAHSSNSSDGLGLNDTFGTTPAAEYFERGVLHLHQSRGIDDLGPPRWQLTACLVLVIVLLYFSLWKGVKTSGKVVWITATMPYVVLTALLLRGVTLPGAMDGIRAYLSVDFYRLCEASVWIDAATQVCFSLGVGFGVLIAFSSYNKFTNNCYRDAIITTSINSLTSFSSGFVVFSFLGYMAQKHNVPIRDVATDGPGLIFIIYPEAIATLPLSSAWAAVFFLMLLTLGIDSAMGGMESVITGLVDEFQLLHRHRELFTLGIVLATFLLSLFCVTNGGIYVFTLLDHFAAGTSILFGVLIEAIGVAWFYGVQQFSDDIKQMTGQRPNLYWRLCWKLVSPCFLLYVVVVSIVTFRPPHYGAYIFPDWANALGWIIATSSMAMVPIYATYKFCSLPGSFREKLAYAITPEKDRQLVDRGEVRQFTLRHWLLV
Method: Striatal DA release was measured using fast-scan cyclic voltammetry (FSCV) with a carbon fiber electrode (CFE; diameter 7 µm, length 50–100 µm) positioned approximately 100 µm below the surface of the slice. The CFE was scanned across a triangular waveform (−0.4 to +1.3 V, 400 V/s) at 10 Hz, and DA release was evoked by single-pulse electrical stimulation (30 µA, 0.5 ms) with an inter-stimulus interval of 180 s. DA release was evoked in the presence of DHBE (1 µM) to block nicotinic acetylcholine receptors. Peak background-subtracted DA oxidation current was measured at +0.6 V, and drugs were washed on after establishing a stable baseline.

dLight1.3b [2] = experiment: In vivo single-fiber photometry of dLight1.3b baseline in freely-moving mice; parameters: species or system mouse; conditions: DETQ 10 mg/kg i.p.
Method: For combined locomotion/photometry experiments in the open field (OF) in tethered mice, a 50 × 50 cm arena was used. Fiber photometry was conducted using a Doric photometry rig combined with a filter/mirror minicube set (Doric Lenses), as above. […] Data were sampled at 122 Hz. […] Mice were habituated to the chamber for 3 consecutive days (30 minutes per day). On experimental days, locomotor activity was video recorded and synchronized with fiber photometry signal recording. […] The OF chamber was cleaned with ethanol and water between mice. Recording sessions were repeated at 48 hours intervals. Mouse behavior as well as photometry signals were analyzed with a custom-written MATLAB script. Mouse locomotion was computed using the body center point of the animal. The center zone of the arena was defined automatically during behavior data analysis as the 25 × 25 cm square with the central point aligned to the center of the open field. […] Videos were recorded with a Logitech C270 camera and analyzed with DeepLabCut (version 2.1.8.2)[84] on an existing open field network. Representative traces were generated with the Anymaze (v7.2) software (Stoelting Co.).

dLight1.3b [3] = experiment: Cue-reward Pavlovian conditioning with NAc dLight1.3b photometry; type: in vivo, mouse
Method: After habituating mice to the experimental chamber (4 consecutive days for 5–10 min) mice were food restricted to 90% ad libitum body weight. […] During learning sessions, the delay between CS and US was increased every training day from 2 to 10 seconds until mice became expert. […] After i.p. injection, mice were placed into an operant chamber. 3–4 electric footshocks (0.4 mA for 1 second) were delivered 10 to 25 min post vehicle or DETQ with variable intervals (randomly chosen from a uniform distribution between 240 and 360 seconds or between 120 and 240 seconds) without predictive cues. Mouse freezing behavior was monitored with a video camera (C310 Logitech,10 frames per second) positioned above the recording chamber and controlled by the Synapse software. […] Freezing was defined as the complete cessation of all movement for at least 1 s during a 25-min testing duration.
For long-term recordings during optogenetic stimulation or chemogenetic inhibition linear fit was calculated across the entire recording or across the vehicle epoch; for event-related experiments fit was performed on fluorescent data obtained in the −60 to +60 s around opto events or −5 to −1 s around behavioral events. […] DA event-related responses were quantified by computing the value at the transient’s peak value and the AUC in the 0 to 10 s or 0 to 60 s period post-event onset. […] The maximal peak value of Veh-normalized ΔF/F0 after opto-onset was plotted over time and the plateau of maximal response was determined by averaging peak opto responses 5, 10, 15 and 20 min post-DETQ. We then looked at trials between 5 and 65 min post-DETQ to determine which trials belonged to a ‘temporal window for stable imaging’. […] AUC of the baseline was calculated within the +5 to +40 minutes time window post ip injection. For detection of spontaneous DA peaks the calculated ΔF/F0 was smoothed with a 50 datapoints (410 milliseconds) moving window, and the built-in Matlab function findpeaks was applied, with the threshold for minimal peak prominence set to 0.5% ΔF/F0.

5-HT2B = tested on: 5-HT2B; parameters: method as in Svensson et al., 2017; Hao et al., 2019; conditions: 10 uM of DETQ; ref Svensson et al., 2017; Hao et al., 2019; cited from earlier work
[4] = parameters: method as in Bruns et al., 2018; conditions: ref Bruns et al., 2018, cited from earlier work
[5] = parameters: method as in Rajagopal et al., 2024; conditions: ref Rajagopal et al., 2024, cited from earlier work
NAc DRD1-MSNs = experiment: Footshock-induced NAc DRD1-MSN activity (jGCaMP8m photometry); conditions: DETQ 10 mg/kg; SCH-23390 0.1 mg/kg i.p.
Method: Cue-reward paradigm (NAc recordings) was carried out in an operant chamber within a sound-attenuating box with low red light illumination (30 Lux). […] During the next session mice were trained to initiate reward delivery via licking. […] During expert sessions CS-US pairings were repeated 20 times per session ( ~ 30 min for each session). Mice underwent a total of 12 sessions for cue-reward learning. 10 minutes before each session drugs were injected i.p. […] The rewards were delivered from 10 to 40 min post vehicle or DETQ injection. Chambers and lick ports were sanitized with ethanol between mice. For all sessions, lick data and photometry recordings were simultaneously obtained; licking behaviour was detected by a capacity-based sensor. Latency to reward-anticipatory licking was calculated as the time between the CS and lick onset. The lick proportion was calculated as the percent time mice spent licking during CS presentation divided by the percent time mice spent licking during the rest of the session (without CS). […] Fiber photometry recordings were analyzed using custom-written Matlab scripts. […] Change in fluorescence, ΔF/F0 (%), was defined as (F-F0)/F0 x 100, where F represents the fluorescent signal (465-nm) at each time point. F0 was calculated by applying a least-squares linear fit (polyfit) to the 405-nm signal to align with the 465-nm signal. […]

[6] = NAc, DETQ 10 mg/kg vs vehicle days

With `C[C@H]1c2cccc(C(C)(C)O)c2C[C@H](CO)N1C(=O)Cc1c(Cl)cccc1Cl` [DETQ, 2-(2,6-dichlorophenyl)-1-((1S,3R)-3-(hydroxymethyl)-5-(2-hydroxypropan-2-yl)-1-methyl-3,4-dihydroisoquinolin-2(1H)-yl)ethan-1-one] the “decay constant (tau) of DA signals” value [1] was “no effect”, the “peak DA release” value [1] was “no effect” and the “increase in sensor baseline” value (dLight1.3b [2]; NAc) was 15–20 % ∆F/F0. The “increase in sensor baseline” value (dLight1.3b [2]; PFC) was 2–4 % ∆F/F0, the “latency to lick and overall licking activity” value (dLight1.3b [3]; DETQ 10 mg/kg) was “not affected” and the “enhancement factor of CS-associated DA peak amplitude” value (dLight1.3b [3]; [6]) was “approximately 2 fold”. The “enhancement factor of US-associated DA peak amplitude” value (dLight1.3b [3]; [6]) was ~1.5 fold, the “inhibition of ligand binding” value (5-HT2B) was 48% and the “brain levels of the histamine metabolites” value ([4]; hD1 mice, same dose) was “significant elevations”. The “brain levels of the histamine metabolites” value ([4]; wild type mice, 10 mg/kg PO) was “did not change”, the “deficits in Novel Object Recognition and Social Interaction” value ([5]; aged hD1 mice, PO 3-10 mg/kg) was “fully reversed these deficits” and the “deficits in Novel Object Recognition and Social Interaction” value ([5]; aged wild type mice) was “failed to reverse these deficits”. For the same compound, the “footshock-induced activity in NAc DRD1-MSNs” value (NAc DRD1-MSNs) was “remained unaffected”.
